# Data reported in patent publication US9814659B2, “Methods of lightening the skin” (Johnson & Johnson Consumer Inc., priority 2012, dated 2017).
# Tested on: MatTek's MelanoDerm skin epidermal equivalent tissues (MEL-300-B; NHEK and NHM)
# Test: Skin Epidermal Equivalents Model as a Skin Lightening Test (ΔL)
# Type: cell-based, human
# Description: Skin Epidermal Equivalents Model as a Skin Lightening Test (ΔL)
# Skin epidermal equivalent tissues are available commercially from MatTek's MelanoDerm™ System and were used for the following tests. MatTek's MelanoDerm™ System consists of normal, human-derived epidermal keratinocytes (NHEK) and melanocytes (NHM) which have been cultured to form a multilayered, highly differentiated model of the human epidermis. Specifically, MEL-300-B tissues, each 9 mm in diameter were used in the following tests.
# The test materials prepared in an appropriate vehicle and tested concentrations were applied topically to the skin model daily and the experiment lasted for 8 days. Measurement was taken on day 9.
# The macroscopic and microscopic visual tissue darkening end points were measured by taking pictures with a digital camera. The Degree of Lightness for each tissue (L-Value) was measured using a spectrophotometer (Konica Minolta CM-2600d). The ΔL (degree of lightness as compared to control) for each test sample is calculated as per following formula: ΔL=L-value of treated sample−L-value of control sample.
structure (smiles),measurement,setting,value
"CC(C)=CCCC(C)=CCCC(C)=CCOc1ccc(CCC(=O)O)cc1 [M-1, 3-(4-Farnesyloxyphenyl)propionic acid]",Skin Lightening (ΔL Value),"concentration 0.5%, topical daily for 8 days, measured day 9",1.2
same,Skin lightening efficacy compared with first extract E1,same concentration (0.5%) as E1,equal to first extract E1
